Experiments:
Assay in all cases: biochemical
Design in all cases: Safety pharmacology off-target panel at Eurofins, radioligand binding with agonist or antagonist radioligand (Supplementary Table 2)
b2 (h) = target: T1, b2 (h) (Homo sapiens, UniProt P07550); settings: antagonist radioligand
T1 construct: gene ADRB2
Description: (§1) Wide-range phosphatase, kinase and preclinical safety pharmacology off-target activity screens were conducted at Eurofins (Extended Data Table 5 and Supplementary Tables 1 and 2). A small phosphatase panel was developed at AbbVie to assess IC50 values on select phosphatases. The following enzymes used in the phosphatase selectivity panel were purchased from Eurofins: PTPN1 (PTP1B; 14–621), PTPN2 (TC-PTP; 14–646), PTPN9 (14–592), SHP1 (14–591) and SHP2 (14–622). The catalytic activity of the phosphatase was monitored using the small-molecule substrate DiFMUP (ThermoFisher) in a fluorescence assay format. In brief, the phosphatase reactions were performed at room temperature in the following assay buffer: 50 mM HEPES, pH 7.2, 100 mM NaCl, 1 mM EDTA, 0.005% Tween-20 and 5 mM TCEP. Each phosphatase was incubated with increasing concentrations of AC484 for 5 min, after which the substrate DiFMUP was added and incubated at 25 °C for 30 min. The final concentration of the enzyme and substrate was maintained at 0.5 nM and 5 μM, respectively, in all the assays. The reaction was then quenched by the addition of a 100 μM solution of bpV(Phen) (Enzo Life Sciences). The fluorescence signal was monitored using an Envision microplate reader (Perkin-Elmer) using excitation and emission wavelengths of 340 nm and 450 nm, respectively. The dose–response curves for the inhibitors were analysed using normalized IC50 regression curve fitting with control-based normalization. Supplementary file 41586_2023_6575_MOESM4_ESM.xlsx: Supplementary Table 2 AC484 receptor selectivity screen.

CGRP = target: T2, CGRP (Homo sapiens, UniProt O60894+Q16602); settings: agonist radioligand
T2 construct: gene RAMP1
Description: as §1

CB1 = target: T3, CB1 (Homo sapiens, UniProt P21554); settings: agonist radioligand
T3 construct: gene CNR1
Description: as §1

VPAC1 (VIP1) = target: T4, VPAC1 (VIP1) (Homo sapiens, UniProt P32241); settings: agonist radioligand
T4 construct: gene VIPR1
Description: as §1

B2 = target: T5, B2 (Homo sapiens, UniProt P30411); settings: agonist radioligand
T5 construct: gene BDKRB2
Description: as §1

A3 (h) = target: T6, A3 (h) (Homo sapiens, UniProt P0DMS8); settings: agonist radioligand
T6 construct: gene ADORA3
Description: as §1

MT2 (ML1B) = target: T7, MT2 (ML1B) (Homo sapiens, UniProt P49286); settings: agonist radioligand
T7 construct: gene MTNR1B; ML1B
Description: as §1

Y1 = target: T8, Y1 (Homo sapiens, UniProt P25929); settings: agonist radioligand
T8 construct: gene NPY1R
Description: as §1

a2B (h) = target: T9, a2B (h) (Homo sapiens, UniProt P18089); settings: antagonist radioligand
T9 construct: gene ADRA2B
Description: as §1

V1a = target: T10, V1a (Homo sapiens, UniProt P37288); settings: agonist radioligand
T10 construct: gene AVPR1A
Description: as §1

M2 = target: T11, M2 (Homo sapiens, UniProt P08172); settings: antagonist radioligand
T11 construct: gene CHRM2
Description: as §1

[1] = target: T12, Norepinephrine transporter (Homo sapiens, UniProt P23975); settings: antagonist radioligand
T12 construct: gene SLC6A2
Description: as §1

A2A (h) = target: T13, A2A (h) (Homo sapiens, UniProt P29274); settings: agonist radioligand
T13 construct: gene ADORA2A
Description: as §1

CB2 = target: T14, CB2 (Homo sapiens, UniProt P34972); settings: agonist radioligand
T14 construct: gene CNR2
Description: as §1

Estrogen ER alpha = target: T15, Estrogen ER alpha (Homo sapiens, UniProt P03372); settings: agonist radioligand
T15 construct: gene ESR1
Description: as §1

ETA = target: T16, ETA (Homo sapiens, UniProt P25101); settings: agonist radioligand
T16 construct: gene EDNRA
Description: as §1

GABAA1 (a1.b2.g2) = target: T17, GABAA1 (a1.b2.g2) (Homo sapiens, UniProt P14867+P18507+P47870); settings: agonist radioligand
T17 construct: gene GABRA1; a1.b2.g2
Description: as §1

5-HT transporter = target: T18, 5-HT transporter (Homo sapiens, UniProt P31645); settings: antagonist radioligand
T18 construct: gene SLC6A4
Description: as §1

UT = target: T19, UT (Homo sapiens, UniProt Q9UKP6); settings: agonist radioligand
T19 construct: gene UTS2R
Description: as §1

Measured: AC50

T9 sequence (P18089 whole entry): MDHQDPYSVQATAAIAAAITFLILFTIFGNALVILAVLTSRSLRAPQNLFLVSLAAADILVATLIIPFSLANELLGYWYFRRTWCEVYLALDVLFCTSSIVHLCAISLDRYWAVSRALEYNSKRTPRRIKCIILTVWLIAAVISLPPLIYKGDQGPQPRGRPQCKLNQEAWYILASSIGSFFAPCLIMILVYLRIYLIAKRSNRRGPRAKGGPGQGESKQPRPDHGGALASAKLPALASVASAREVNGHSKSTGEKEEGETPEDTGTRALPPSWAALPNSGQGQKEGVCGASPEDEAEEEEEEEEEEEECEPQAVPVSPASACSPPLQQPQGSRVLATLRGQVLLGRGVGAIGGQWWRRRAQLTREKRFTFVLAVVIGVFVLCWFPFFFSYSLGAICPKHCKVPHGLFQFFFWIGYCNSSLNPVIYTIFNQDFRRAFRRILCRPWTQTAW
T5 sequence (P30411 whole entry): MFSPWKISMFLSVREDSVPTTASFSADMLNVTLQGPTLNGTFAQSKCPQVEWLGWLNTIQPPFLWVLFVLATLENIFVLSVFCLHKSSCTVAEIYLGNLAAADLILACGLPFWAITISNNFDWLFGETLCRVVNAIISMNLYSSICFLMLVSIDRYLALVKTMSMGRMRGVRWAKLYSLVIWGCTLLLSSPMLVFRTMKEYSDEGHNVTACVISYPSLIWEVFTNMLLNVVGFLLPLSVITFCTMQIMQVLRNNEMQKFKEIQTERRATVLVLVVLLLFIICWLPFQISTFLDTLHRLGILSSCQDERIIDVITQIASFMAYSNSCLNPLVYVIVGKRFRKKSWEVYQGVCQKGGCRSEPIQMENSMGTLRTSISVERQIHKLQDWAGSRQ
T7 sequence (P49286 whole entry): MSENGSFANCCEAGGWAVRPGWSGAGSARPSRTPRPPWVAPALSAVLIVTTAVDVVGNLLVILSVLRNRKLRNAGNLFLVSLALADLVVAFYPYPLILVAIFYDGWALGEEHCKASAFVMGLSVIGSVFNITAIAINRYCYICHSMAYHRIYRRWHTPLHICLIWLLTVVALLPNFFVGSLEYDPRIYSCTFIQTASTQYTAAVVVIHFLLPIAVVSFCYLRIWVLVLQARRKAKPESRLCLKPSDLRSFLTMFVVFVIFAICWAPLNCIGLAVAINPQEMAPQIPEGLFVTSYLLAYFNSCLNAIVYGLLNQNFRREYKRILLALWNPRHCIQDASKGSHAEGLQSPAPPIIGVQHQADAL
T8 sequence (P25929 whole entry): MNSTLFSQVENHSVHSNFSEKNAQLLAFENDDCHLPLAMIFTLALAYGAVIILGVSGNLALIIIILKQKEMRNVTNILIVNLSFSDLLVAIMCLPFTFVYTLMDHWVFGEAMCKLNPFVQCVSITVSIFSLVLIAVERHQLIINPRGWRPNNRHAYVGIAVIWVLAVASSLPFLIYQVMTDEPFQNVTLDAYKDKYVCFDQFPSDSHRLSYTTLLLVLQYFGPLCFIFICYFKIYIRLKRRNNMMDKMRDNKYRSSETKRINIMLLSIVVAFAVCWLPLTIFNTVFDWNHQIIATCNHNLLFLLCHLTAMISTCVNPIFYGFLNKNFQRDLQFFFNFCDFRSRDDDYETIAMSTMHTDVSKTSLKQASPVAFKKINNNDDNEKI
T3 sequence (P21554 whole entry): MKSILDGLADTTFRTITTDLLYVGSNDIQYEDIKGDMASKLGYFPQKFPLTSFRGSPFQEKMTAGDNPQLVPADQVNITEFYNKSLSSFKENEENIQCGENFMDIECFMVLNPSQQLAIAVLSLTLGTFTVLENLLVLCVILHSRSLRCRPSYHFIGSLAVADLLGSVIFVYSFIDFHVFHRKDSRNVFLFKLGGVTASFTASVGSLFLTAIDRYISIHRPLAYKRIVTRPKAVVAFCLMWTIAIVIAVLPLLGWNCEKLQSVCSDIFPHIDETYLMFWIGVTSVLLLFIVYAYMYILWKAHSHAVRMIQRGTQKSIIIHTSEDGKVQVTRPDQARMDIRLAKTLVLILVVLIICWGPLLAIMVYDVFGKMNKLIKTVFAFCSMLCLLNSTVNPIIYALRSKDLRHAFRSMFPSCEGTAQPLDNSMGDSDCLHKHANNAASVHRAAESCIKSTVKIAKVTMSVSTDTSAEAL
T11 sequence (P08172 whole entry): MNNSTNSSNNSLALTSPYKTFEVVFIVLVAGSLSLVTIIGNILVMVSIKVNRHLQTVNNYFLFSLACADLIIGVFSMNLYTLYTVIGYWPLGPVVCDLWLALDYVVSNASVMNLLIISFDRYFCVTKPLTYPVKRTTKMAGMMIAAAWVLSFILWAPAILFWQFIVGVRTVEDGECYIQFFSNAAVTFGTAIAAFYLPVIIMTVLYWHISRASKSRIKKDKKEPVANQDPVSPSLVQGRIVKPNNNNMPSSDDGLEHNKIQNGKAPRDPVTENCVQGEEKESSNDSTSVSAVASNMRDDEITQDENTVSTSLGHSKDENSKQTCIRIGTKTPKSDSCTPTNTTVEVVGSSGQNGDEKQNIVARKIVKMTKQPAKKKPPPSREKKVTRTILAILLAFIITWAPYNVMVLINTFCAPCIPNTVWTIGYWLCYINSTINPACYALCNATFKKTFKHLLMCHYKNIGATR
T1 sequence (P07550 whole entry): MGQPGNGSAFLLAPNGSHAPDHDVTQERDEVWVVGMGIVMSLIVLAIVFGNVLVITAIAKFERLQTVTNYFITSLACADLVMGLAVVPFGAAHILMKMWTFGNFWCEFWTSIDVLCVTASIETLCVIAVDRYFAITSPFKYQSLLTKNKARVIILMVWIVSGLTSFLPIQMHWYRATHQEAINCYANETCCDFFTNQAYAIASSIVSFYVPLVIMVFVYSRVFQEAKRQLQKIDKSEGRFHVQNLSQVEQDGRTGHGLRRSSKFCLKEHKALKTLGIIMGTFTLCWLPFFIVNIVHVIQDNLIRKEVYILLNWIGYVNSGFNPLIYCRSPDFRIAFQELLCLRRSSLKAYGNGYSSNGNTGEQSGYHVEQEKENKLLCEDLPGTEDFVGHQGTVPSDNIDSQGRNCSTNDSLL
T6 sequence (P0DMS8 whole entry): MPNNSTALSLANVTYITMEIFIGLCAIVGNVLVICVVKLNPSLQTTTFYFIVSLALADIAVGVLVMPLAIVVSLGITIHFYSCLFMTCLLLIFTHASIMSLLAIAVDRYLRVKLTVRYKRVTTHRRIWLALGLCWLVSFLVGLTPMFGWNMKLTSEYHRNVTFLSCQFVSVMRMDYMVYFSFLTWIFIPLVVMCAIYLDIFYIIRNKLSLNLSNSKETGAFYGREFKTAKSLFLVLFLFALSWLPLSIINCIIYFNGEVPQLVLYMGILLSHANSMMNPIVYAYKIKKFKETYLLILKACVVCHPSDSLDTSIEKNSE
T16 sequence (P25101 whole entry): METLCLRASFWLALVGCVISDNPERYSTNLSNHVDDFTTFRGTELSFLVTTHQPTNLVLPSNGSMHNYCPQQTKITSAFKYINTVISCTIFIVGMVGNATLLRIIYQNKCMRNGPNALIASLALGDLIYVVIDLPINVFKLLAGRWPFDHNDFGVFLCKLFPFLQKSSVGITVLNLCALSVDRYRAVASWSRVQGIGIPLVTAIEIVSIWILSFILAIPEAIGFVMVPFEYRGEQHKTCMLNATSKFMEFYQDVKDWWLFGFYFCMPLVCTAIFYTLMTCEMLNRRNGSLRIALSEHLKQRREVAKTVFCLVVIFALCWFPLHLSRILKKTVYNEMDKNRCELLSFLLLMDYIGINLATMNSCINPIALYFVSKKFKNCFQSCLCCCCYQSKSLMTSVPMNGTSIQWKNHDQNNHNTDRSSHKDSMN
T12 sequence (P23975 whole entry): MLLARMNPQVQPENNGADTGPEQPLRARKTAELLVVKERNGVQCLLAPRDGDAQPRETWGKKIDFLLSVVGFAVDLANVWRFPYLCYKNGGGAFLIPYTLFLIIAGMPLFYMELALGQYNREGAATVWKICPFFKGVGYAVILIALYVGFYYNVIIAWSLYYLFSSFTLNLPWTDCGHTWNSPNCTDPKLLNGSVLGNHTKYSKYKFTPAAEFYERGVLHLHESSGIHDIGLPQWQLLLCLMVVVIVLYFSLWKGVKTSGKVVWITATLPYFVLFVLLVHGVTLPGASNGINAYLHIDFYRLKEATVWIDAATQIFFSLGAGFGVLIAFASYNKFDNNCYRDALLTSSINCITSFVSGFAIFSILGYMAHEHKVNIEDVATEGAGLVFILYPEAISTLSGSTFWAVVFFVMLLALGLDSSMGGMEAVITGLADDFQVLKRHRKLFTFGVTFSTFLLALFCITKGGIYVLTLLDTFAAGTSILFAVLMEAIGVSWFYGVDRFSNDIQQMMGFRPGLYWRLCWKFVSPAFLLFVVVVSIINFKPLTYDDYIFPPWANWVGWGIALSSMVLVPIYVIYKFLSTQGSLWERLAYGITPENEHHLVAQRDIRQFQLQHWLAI
T2 sequence (O60894 whole entry): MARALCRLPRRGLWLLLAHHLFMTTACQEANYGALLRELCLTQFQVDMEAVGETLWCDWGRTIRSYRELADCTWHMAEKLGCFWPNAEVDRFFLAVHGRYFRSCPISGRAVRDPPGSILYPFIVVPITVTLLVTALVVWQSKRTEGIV
T2 sequence (Q16602 whole entry): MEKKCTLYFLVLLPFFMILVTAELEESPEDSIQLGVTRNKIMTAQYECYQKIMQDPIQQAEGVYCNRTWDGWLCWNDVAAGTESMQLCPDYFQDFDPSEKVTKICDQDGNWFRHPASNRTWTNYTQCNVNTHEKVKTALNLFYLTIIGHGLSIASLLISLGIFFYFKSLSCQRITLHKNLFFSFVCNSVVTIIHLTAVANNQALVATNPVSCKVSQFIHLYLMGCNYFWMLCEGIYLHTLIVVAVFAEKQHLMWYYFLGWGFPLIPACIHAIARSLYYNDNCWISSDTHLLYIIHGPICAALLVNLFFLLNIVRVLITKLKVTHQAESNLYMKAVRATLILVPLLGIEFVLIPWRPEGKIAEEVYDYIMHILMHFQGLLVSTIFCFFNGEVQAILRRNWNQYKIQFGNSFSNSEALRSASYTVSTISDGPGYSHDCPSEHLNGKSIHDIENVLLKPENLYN

CC(C)CCN[C@@H]1CCc2cc(O)c(N3CC(=O)NS3(=O)=O)c(F)c2C1 [AC484, ABBV-CLS-484]
> 0.01 mM: all assays above

From paper PMC10599993, “The PTPN2/PTPN1 inhibitor ABBV-CLS-484 unleashes potent anti-tumour immunity” (Nature, 2023)
